For this test, the target named is T1, human GluN1^FA,TL/GluN3A receptors (Homo sapiens, UniProt Q8TCU5).
T1 construct: Human GluN3A (NP_597702.2) and rat GluN3B (NP_579842.2) were synthesized and subcloned into SP6 plasmids; expressed in transfected cells; host or cells: Xenopus laevis oocytes, cRNA injection (GluN1:GluN3 1:3)
Briefly: Two-electrode voltage-clamp recordings of GluN1^FA,TL/GluN3A receptors in Xenopus oocytes. It is filed as cell-based. The note with it: for remaining activity at 30 µM: read-out: hGluN1^FA,TL/hGluN3A (100 × Idrug/Icontrol at 30 μM drug). An excerpt: cDNA encoding human wild-type (WT) GluN1-1a (GenBank accession numbers NP_015566, hereafter GluN1) and rat GluN1-1a (NP_058706.1) were synthesized and subcloned into pGEMHE plasmid; some experiments used the rat splice variant GluN1-4a (NP_001257531.1). Human GluN3A (NP_597702.2) and rat GluN3B (NP_579842.2) were synthesized and subcloned into SP6 plasmids. For most experiments, human GluN1 was co-expressed with human GluN3A, except for mutagenesis experiments where rat GluN1 was co-expressed with human GluN3A. Rat GluN1-4a was always expressed with rat GluN3B.
Defolliculated Xenopus laevis oocytes (stage V-VI) were obtained from Ecocyte BioScience (Austin, Texas), or prepared from commercially available Xenopus ovaries (Xenopus 1, Dexter, MI) as previously described (Hansen, et al., Mol. Pharmacol., 2013). A Drummond Nanoject II (Broomall, PA) was used to inject oocytes with cRNAs encoding GluN1 and GluN3 at a 1:3 ratio in RNase-free water. The cRNA was diluted as needed to give responses with amplitudes ranging between 200-2000 nA (0.2-10 ng total cRNA). Following cRNA injection, the oocytes were stored at 15-19° C. in Barth's solution that contained (in mM) 88 NaCl, 2.4 NaHCO3, 1 KCl, 0.33 Ca(NO3)2, 0.41 CaCl2), 0.82 MgSO4, and 5 Tris-HCl (pH 7.4 with NaOH), supplemented with 1 μg/ml streptomycin (Invitrogen, Carlsbad, CA) and 100 μg/ml gentamicin (Fisher Scientific, Pittsburgh, PA). Recordings were performed 2-5 days following cRNA microinjection at room temperature (23° C.) using a two-electrode voltage-clamp amplifier (OC725, Warner Instrument, Hamilton, CT). The signal was low-pass filtered at 10-20 Hz (4-pole, −3 dB Bessel) and digitized at the Nyquist rate using PCI-6025E or USB-6212 BNC data acquisition boards (National Instruments, Austin, TX) using EasyOocyte (http://www.easyoocyte.io/). Oocytes were placed in a custom-made chamber and continuously perfused (2.5 ml/min) with oocyte recording solution containing (in mM) 90 NaCl, 1 KCl, 10 HEPES, 0.5-1.0 BaCl2, and 0.01 EDTA (pH 7.4 with NaOH). Solutions were applied by gravity, and solution exchange was controlled through a rotary valve (Hamilton, Reno, NV). Recording electrodes were filled with 0.3-3.0 M KCl, and current responses were recorded at a holding potential of −40 mV.
Response (%)=(100−minimum)/(1+([concentration]/IC50)^nH)+minimum (2) • where nH is the Hill slope, IC50 is the concentration that produces a half-maximal effect, and minimum is the degree of residual inhibition at a saturating concentration of the negative allosteric modulator.
The afore-referenced compounds were screened in the same assay as EU1180-438 to determine their effects on hGluN1^FA,TL/hGluN3A receptors. Selected compounds that inhibited by more than 20% at the concentration at which they were initially evaluated (either 10 or 30 μM) were analyzed further, and a dose-response curve was generated to determine their IC50 values.

T1 sequence (Q8TCU5 24-1115, other chains not shown): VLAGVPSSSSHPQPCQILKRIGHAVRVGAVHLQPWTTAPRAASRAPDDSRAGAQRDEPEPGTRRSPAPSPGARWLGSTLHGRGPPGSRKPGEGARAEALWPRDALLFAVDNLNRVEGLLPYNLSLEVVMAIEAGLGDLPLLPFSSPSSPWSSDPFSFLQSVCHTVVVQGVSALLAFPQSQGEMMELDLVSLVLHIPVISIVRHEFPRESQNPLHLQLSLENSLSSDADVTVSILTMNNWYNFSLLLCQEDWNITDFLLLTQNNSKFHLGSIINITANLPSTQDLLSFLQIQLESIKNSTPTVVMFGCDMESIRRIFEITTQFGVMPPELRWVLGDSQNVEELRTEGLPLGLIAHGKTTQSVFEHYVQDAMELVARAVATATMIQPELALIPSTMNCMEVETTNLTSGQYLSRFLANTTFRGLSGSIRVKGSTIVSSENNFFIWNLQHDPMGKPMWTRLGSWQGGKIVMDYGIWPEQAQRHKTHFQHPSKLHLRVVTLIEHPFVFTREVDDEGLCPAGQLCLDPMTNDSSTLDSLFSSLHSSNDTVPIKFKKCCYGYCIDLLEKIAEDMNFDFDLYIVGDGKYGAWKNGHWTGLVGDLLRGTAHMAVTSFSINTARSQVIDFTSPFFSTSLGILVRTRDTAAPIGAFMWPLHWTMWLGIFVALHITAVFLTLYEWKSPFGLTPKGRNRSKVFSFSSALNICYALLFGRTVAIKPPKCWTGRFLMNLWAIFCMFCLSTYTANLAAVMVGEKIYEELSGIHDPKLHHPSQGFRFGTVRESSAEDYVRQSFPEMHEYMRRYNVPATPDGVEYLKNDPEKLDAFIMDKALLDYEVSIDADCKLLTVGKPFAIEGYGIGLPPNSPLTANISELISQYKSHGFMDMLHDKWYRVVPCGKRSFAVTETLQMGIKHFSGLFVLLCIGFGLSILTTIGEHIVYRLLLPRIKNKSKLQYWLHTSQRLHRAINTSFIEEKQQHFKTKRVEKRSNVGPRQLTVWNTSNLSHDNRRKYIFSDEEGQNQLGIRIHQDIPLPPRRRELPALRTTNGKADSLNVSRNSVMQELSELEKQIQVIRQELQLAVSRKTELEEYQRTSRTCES

In the case of `COc1ccc(C(COc2cccc(C)n2)N2Cc3ccc(F)cc3C2=O)cc1` (stereo not drawn) [EU1180-599, 6-Fluoro-2-(1-(4-methoxyphenyl)-2-((6-methylpyridin-2-yl)oxy)ethyl)isoindolin-1-one], the remaining activity at 30 µM was 57%.
As for `COc1ccc(OCC(c2ccc(OC)c(OC)c2)N2Cc3cc(F)ccc3C2=O)cc1` (stereo not drawn) [EU1180-528, 2-(1-(3,4-Dimethoxyphenyl)-2-(4-methoxyphenoxy)ethyl)-5-fluoroisoindolin-1-one], the remaining activity at 30 µM came to 94%.
Still for that read-out and setting: next, `COc1ccc(OCC(c2ccc(OC)cc2F)N2Cc3cc(F)ccc3C2=O)cc1` (stereo not drawn) [EU1180-536, 5-Fluoro-2-(1-(2-fluoro-4-methoxyphenyl)-2-(4-methoxyphenoxy)ethyl)isoindolin-1-one]: 80%; `COc1ccc(OCC(c2ccc(OC)cc2F)N2Cc3ccc(Br)cc3C2=O)cc1` (stereo not drawn) [EU1180-535, 6-Bromo-2-(1-(2-fluoro-4-methoxyphenyl)-2-(4-methoxyphenoxy)ethyl)isoindolin-1-one]: 83%; `Cc1cccc(OCC(c2ccc(OC(C)C)cc2)N2Cc3cc(F)ccc3C2=O)n1` (stereo not drawn) [EU1180-513, 5-fluoro-2-(1-(4-isopropoxyphenyl)-2-((6-methylpyridin-2-yl)oxy)ethyl)isoindolin-1-one]: 87%.
The same measure, in the same setting: next, `COc1ccc(C(COc2cccc(C)n2)N2Cc3cc(Br)ccc3C2=O)cc1` (stereo not drawn) [EU1180-596, 5-Bromo-2-(1-(4-methoxyphenyl)-2-((6-methylpyridin-2-yl)oxy)ethyl)isoindolin-1-one]: 92%; `CC(C)Oc1ccc(C(COc2ccc(OC(F)(F)F)cc2)N2Cc3ccc(Br)cc3C2=O)cc1` (stereo not drawn) [EU1180-553, 6-bromo-2-(1-(4-isopropoxyphenyl)-2-(4-(trifluoromethoxy)phenoxy)ethyl)isoindolin-1-one]: 101%; `COc1ccc(OCC(c2c(F)cc(OC)cc2F)N2Cc3ccc(Br)cc3C2=O)cc1` (stereo not drawn) [EU1180-550, 6-Bromo-2-(1-(2,6-difluoro-4-methoxyphenyl)-2-(4-methoxyphenoxy)ethyl)isoindolin-1-one]: 93%.
With `COc1ccc(OCC(c2ccc(OC)c(OC)c2)N2Cc3ccc(Cl)cc3C2=O)cc1` (stereo not drawn) [EU1180-525, 6-Chloro-2-(1-(3,4-dimethoxyphenyl)-2-(4-methoxyphenoxy)ethyl)isoindolin-1-one], the remaining activity at 30 µM came to 94%.
For the compound `COc1cc(F)c(C(COc2cccc(C)n2)N2Cc3cc(Br)ccc3C2=O)c(F)c1` (stereo not drawn) [EU1180-612, 5-Bromo-2-(1-(2,6-difluoro-4-methoxyphenyl)-2-((6-methylpyridin-2-yl)oxy)ethyl)isoindolin-1-one], the remaining activity at 30 µM is 79%.
Turning to `COc1ccc(OCC(c2ccc(OC(C)C)cc2)N2Cc3cc(F)ccc3C2=O)cc1` (stereo not drawn) [EU1180-561, 5-fluoro-2-(1-(4-isopropoxyphenyl)-2-(4-methoxyphenoxy)ethyl)isoindolin-1-one], the remaining activity at 30 µM turned out to be 88%.
On the same count and under the same terms, next, `Cc1cccc(OCC(c2ccc(OC(C)C)cc2)N2Cc3cc(Br)ccc3C2=O)n1` (stereo not drawn) [EU1180-515, 5-bromo-2-(1-(4-isopropoxyphenyl)-2-((6-methylpyridin-2-yl)oxy)ethyl)isoindolin-1-one]: 100%.
Regarding `CC(C)Oc1ccc(C(COc2ccc(OC(F)(F)F)cc2)N2Cc3ccc(Cl)cc3C2=O)cc1` (stereo not drawn) [EU1180-540, 6-chloro-2-(1-(4-isopropoxyphenyl)-2-(4-(trifluoromethoxy)phenoxy)ethyl)isoindolin-1-one], the remaining activity at 30 µM turned out to be 100%.
With `COc1ccc(C(COc2cccc(C)n2)N2Cc3ccc(F)cc3C2=O)c(F)c1` (stereo not drawn) [EU1180-602, 6-Fluoro-2-(1-(2-fluoro-4-methoxyphenyl)-2-((6-methylpyridin-2-yl)oxy)ethyl)isoindolin-1-one], the remaining activity at 30 µM worked out at 73%.
On the same count and under the same terms, for `COc1ccc(C(COc2cccc(C)n2)N2Cc3cc(F)ccc3C2=O)c(F)c1` (stereo not drawn) [EU1180-601, 5-Fluoro-2-(1-(2-fluoro-4-methoxyphenyl)-2-((6-methylpyridin-2-yl)oxy)ethyl)isoindolin-1-one] the value was 79%.
Regarding `COc1ccc(C(COc2cccc(C)n2)N2Cc3ccc(Cl)cc3C2=O)c(F)c1` (stereo not drawn) [EU1180-605, 6-Chloro-2-(1-(2-fluoro-4-methoxyphenyl)-2-((6-methylpyridin-2-yl)oxy)ethyl)isoindolin-1-one], the remaining activity at 30 µM came out at 69%.
As for `COc1ccc(OCC(c2ccc(OC)cc2F)N2Cc3ccc(C(F)(F)F)cc3C2=O)cc1` (stereo not drawn) [EU1180-531, 2-(1-(2-Fluoro-4-methoxyphenyl)-2-(4-methoxyphenoxy)ethyl)-6-(trifluoromethyl)isoindolin-1-one], the remaining activity at 30 µM worked out at 99%.
Still for that read-out and setting: next, `CCOc1ccc(OCC(c2ccc(OC(C)C)cc2)N2Cc3ccc(C(F)(F)F)cc3C2=O)cc1` (stereo not drawn) [EU1180-587, 2-(2-(4-ethoxyphenoxy)-1-(4-isopropoxyphenyl)ethyl)-6-(trifluoromethyl)isoindolin-1-one]: 98%; `CC(C)Oc1ccc(C(COc2ccc(OC(F)(F)F)cc2)N2Cc3ccc(C(F)(F)F)cc3C2=O)cc1` (stereo not drawn) [EU1180-539, 2-(1-(4-isopropoxyphenyl)-2-(4-(trifluoromethoxy)phenoxy)ethyl)-6-(trifluoromethyl)isoindolin-1-one]: 99%.
For `COc1ccc(OCC(c2ccc(OC)cc2)N2Cc3ccc(Cl)cc3C2=O)cc1` (stereo not drawn) [EU1180-516, 6-Chloro-2-(2-(4-methoxyphenoxy)-1-(4-methoxyphenyl)ethyl)isoindolin-1l-one], the “hGluN1^FA,TL/hGluN3A (100 × Idrug/Icontrol at 30 μM drug)” value (30 μM drug) is 44%.
Turning to `COc1ccc(OCC(c2ccc(OC(C)C)cc2)N2Cc3ccc(C(F)(F)F)cc3C2=O)cc1` (stereo not drawn) [EU1180-558, 2-(1-(4-isopropoxyphenyl)-2-(4-methoxyphenoxy)ethyl)-6-(trifluoromethyl)isoindolin-1-one], the remaining activity at 30 µM worked out at 98%.
The same measure, in the same setting: next, `COc1ccc(OCC(c2ccc(OC)cc2)N2Cc3ccc(C(F)(F)F)cc3C2=O)cc1` (stereo not drawn) [EU1180-518, 2-(2-(4-Methoxyphenoxy)-1-(4-methoxyphenyl)ethyl)-6-(trifluoromethyl)isoindolin-1-one]: 86%; `CC(C)Oc1ccc(C(COc2ccc(OC(F)(F)F)cc2)N2Cc3ccccc3C2=O)cc1` (stereo not drawn) [EU1180-538, 2-(1-(4-isopropoxyphenyl)-2-(4-(trifluoromethoxy)phenoxy)ethyl)isoindolin-1-one]: 99%; `COc1cc(F)c(C(COc2cccc(C)n2)N2Cc3ccc(C(F)(F)F)cc3C2=O)c(F)c1` (stereo not drawn) [EU1180-609, 2-(1-(2,6-Difluoro-4-methoxyphenyl)-2-((6-methylpyridin-2-yl)oxy)ethyl)-6-(trifluoromethyl)isoindolin-1-one]: 81%.
As for `COc1ccc(OCC(c2c(F)cc(OC)cc2F)N2Cc3cc(Br)ccc3C2=O)cc1` (stereo not drawn) [EU1180-549, 5-Bromo-2-(1-(2,6-difluoro-4-methoxyphenyl)-2-(4-methoxyphenoxy)ethyl)isoindolin-1-one], the remaining activity at 30 µM stood at 95%.
Turning to `COc1ccc(OCC(c2ccc(OC(C)C)cc2)N2Cc3ccc(Br)cc3C2=O)cc1` (stereo not drawn) [EU1180-562, 6-bromo-2-(1-(4-isopropoxyphenyl)-2-(4-methoxyphenoxy)ethyl)isoindolin-1-one], the remaining activity at 30 µM stood at 98%.
Still for that read-out and setting: for `COc1ccc(OCC(c2c(F)cc(OC)cc2F)N2Cc3ccc(C(F)(F)F)cc3C2=O)cc1` (stereo not drawn) [EU1180-546, 2-(1-(2,6-Difluoro-4-methoxyphenyl)-2-(4-methoxyphenoxy)ethyl)-6-(trifluoromethyl)isoindolin-1-one] the value was 96%.

Source of the values: patent US20230339854A1, “Negative Allosteric Modulation of GluN3-Containing N-Methyl-D-Aspartate Receptors” (Emory University, priority 2020, published 2023).
